This note sets out measurements from ChEMBL document CHEMBL1126052, “2-Carboxytetrahydroquinolines. Conformational and stereochemical requirements for antagonism of the glycine site on the NMDA receptor” (J Med Chem, 1992).

In this assay the target is Glutamate NMDA receptor. As to the kind of experiment: Concentration required to inhibit 50% of the specific binding of [3H]glycine to NMDA receptor prepared from rat cerebral cortex and hippocampus. It is filed as tissue-based.

By IC50 is commonly meant the midpoint of a concentration-inhibition curve. Compound `O=C(O)[C@@H]1C[C@H](C(=O)O)c2c(Cl)cc(Cl)cc2N1` returned an IC50 of 31.4 µM.
As for `COC(=O)[C@H]1C[C@@H](C(=O)O)Nc2cc(Cl)ccc21`, the IC50 was found to be 5.02 µM.
In the case of `COC(=O)[C@H]1C[C@H](C(=O)O)Nc2cc(Cl)cc(I)c21`, the IC50 stood at 3.09 µM.
In turn, `O=C(O)[C@@H]1C[C@H](C(=O)OCc2ccccc2)c2c(Cl)cc(Cl)cc2N1` displayed an IC50 of 2.33 µM.
The same measure for `NC(=O)[C@H]1C[C@@H](C(=O)O)Nc2cc(Cl)cc(Cl)c21`: 3.44 µM; for `O=C(O)C[C@H]1C[C@H](C(=O)O)Nc2cc(Cl)cc(Cl)c21`: 0.134 µM.
In the case of `O=C(OCc1ccccc1)[C@H]1C[C@H](C(=O)O)Nc2cc(Cl)cc(Cl)c21`, the IC50 turned out to be 1.05 µM.
The same measure for `NC(=O)[C@H]1C[C@H](C(=O)O)Nc2cc(Cl)cc(Cl)c21`: 0.72 µM; for `Cc1cc(C)c2c(c1)NC(C(=O)O)CC2=O` (configuration not stated): 1.86 µM.
In turn, `Cc1noc(C[C@H]2C[C@H](C(=O)O)Nc3cc(Cl)cc(Cl)c32)n1` gave an IC50 of 2.53 µM.
Turning to `COC(=O)C[C@H]1C[C@H](C(=O)O)Nc2cc(Cl)cc(Cl)c21`, the IC50 turned out to be 0.603 µM.
In turn, `Cc1cc(C)c2c(c1)N[C@@H](C(=O)O)[C@@H](C)C2=O` came in with an IC50 of 13.7 µM.
In turn, `O=C(O)C1CCc2c(Cl)cc(Cl)cc2N1` (configuration not stated) gave an IC50 of 6.39 µM.
For `COC(=O)[C@H]1C[C@@H](C(=O)O)Nc2cccc(Cl)c21`, the IC50 worked out at 26.1 µM.
The same measure for `O=C1CC(C(=O)O)Nc2cc(Cl)ccc21` (configuration not stated): 2.36 µM; for `O=C1CC(C(=O)O)Nc2cccc(Cl)c21` (configuration not stated): 6.96 µM.
For `O=C(O)C[C@H]1C[C@@H](C(=O)O)Nc2cc(Cl)cc(Cl)c21` the value was 15 µM; for `O=C1CC(C(=O)O)Nc2cc(I)cc(Cl)c21` (configuration not stated), 3.84 µM.
As for `Cc1cc(C)c2c(c1)N[C@@H](C(=O)O)[C@H](C)C2=O`, the IC50 is greater than 100 µM.
For `O=C1CC(C(=O)O)Nc2ccccc21` (configuration not stated) the value was greater than 100 µM.
For the compound `O=C1CC(C(=O)O)Nc2cc(Cl)cc(Cl)c21` (configuration not stated), the IC50 was 2.31 µM.
As to `COC(=O)[C@H]1C[C@H](C(=O)O)Nc2cc(Br)cc(Br)c21`, the IC50 came out at 2.89 µM.
Compound `COC(=O)[C@H]1C[C@H](C(=O)O)Nc2cc(Cl)cc(Cl)c21` displayed an IC50 of 2.47 µM.
Turning to `O=C(O)[C@H]1C[C@H](C(=O)O)Nc2cc(Cl)cc(Cl)c21`, the IC50 was 20 µM.
With `COC(=O)[C@H]1C[C@H](C(=O)O)Nc2cc(Cl)ccc21`, the IC50 was 16.9 µM.
In turn, `O=C(O)c1cc(C(=O)O)c2c(Cl)cc(Cl)cc2n1` registered an IC50 greater than 100 µM.
In turn, `COC(=O)[C@H]1C[C@H](C(=O)O)Nc2cccc(Cl)c21` returned an IC50 of 176 µM.
Take `COC(=O)[C@H]1C[C@@H](C(=O)O)Nc2cc(Cl)cc(I)c21`: the IC50 is 4.18 µM.
`COC(=O)[C@H]1C[C@@H](C(=O)O)Nc2cc(Br)cc(Br)c21` had an IC50 of 2.05 µM.
The same measure for `COC(=O)[C@H]1C[C@@H](C(=O)O)Nc2cc(Cl)cc(Cl)c21`: 1.21 µM; for `O=C1CC(C(=O)O)Nc2cc(Cl)cc(I)c21` (configuration not stated): 0.36 µM.
For `O=C1CC(C(=O)O)Nc2cc(Br)cc(Br)c21` (configuration not stated) the value was 1.29 µM.
